How the values were obtained:
Type in all cases: in vivo, mouse
VCAM-1 = VCAM-1 level, protein chip assay; conditions: aged 3xTg-AD female mice; cortex and hippocampus; 30 mg/kg, 7 days, IP
Protocol: FIGS. 19A-19F are six graphs showing PRMT4 inhibitor (TP-064) reduced ICAM-1, VCAM-1 and enhanced E-Cadherin protein levels in aged female 3xTg-AD mice. In FIGS. 19A-19D, aged 3xTg-AD female mice v. […] Adhesion molecules were assessed via protein chip assay in the cortex and hippocampus. * p<0.05 evaluated by one-way ANOVA with Tukey's post-hoc analyses.

aged 3xTg-AD female mice [1] = assay: Regional cortical cerebral blood flow, laser speckle contrast imaging; conditions: 3xTg-AD mice; 30 mg/kg, IP, 7 days; untreated C57BL/6J = 100%
Protocol: Surgical Preparation and Anesthetic Procedure: Mice were anesthetized with 4% isoflurane (Cat. No. 21295098, Patterson Veterinary, Greeley, CO) and a mixture of O2 and N2O (30:70) via mask. Hair was shaved at the site of surgery (from the nape up to the eyes). Body temperature was maintained at 37° C. by a rodent heating pad with anal probe as a temperature reference (ThermoStar, RWD Life Science, San Diego, CA). Anesthesia was maintained by lowering isoflurane from 4% to 1%.
Thinned-skull preparation: Mice were placed in a stereotaxic frame to stabilize the skull and artificial tears (Patterson Veterinary, Greeley, CO) was applied in each eye. Dissection scissors and forceps were used to reveal the skull. A high-speed dental drill (RWD Life Science, San Diego, CA) was used to thin the skull creating a small window (1 mm in diameter) approximately 2 mm rostral and 1 mm lateral to the lambda, with saline irrigation to prevent overheating of the skull tissue. Laser speckle contrast imaging or two-photon laser scanning microscopy analyses were conducted following this preparation.
Laser speckle contrast imaging: Cerebral microvasculature was imaged by utilizing the thin skull preparation method. After thinning the skull, the mouse was placed in a stereotaxic apparatus. […]

3-nitrotyrosine = assay: 3-Nitrotyrosine ELISA of brain lysate; conditions: combined cortex and hippocampus lysate
Protocol: OxiSelect™ 3-Nitrotyrosine ELISA: Protein was extracted from dissected tissue in an extraction buffer consisting of T-PER® Tissue Protein Extraction Reagent (Cat. No. 78510, Thermo Fischer Scientific, Waltham, MA) and Halt™ Protease Inhibitor Cocktail (Cat. No. 87785, Thermo Fischer Scientific, Waltham, MA). Following homogenization and centrifugation (10,000×g, 5 min, 4° C.), protein concentration was determined in the supernatant using DC Protein Assay (Cat. No. 5000112, Bio-Rad Laboratories, Hercules, California) according to manufacturer instructions. Levels of 3-Nitrotyrosine were determined using OxiSelect™ 3-Nitrotyrosine ELISA (Cat. No. STA-305, Cell Biolabs Inc., San Diego, CA). Briefly, 50 μL of protein lysate was added to a pre-coated 96-well plate and incubated at room temperature (20° C.) for 10 min on an orbital shaker. 50 μL of anti-nitrotyrosine antibody (1:1000, Cell Biolabs Inc., San Diego, CA) was added to each well and plate was incubated for 1 hr at 20° C. Wells were washed 3 times using assay wash buffer, and 100 μL of secondary antibody-enzyme conjugate (1:1000, Cell Biolabs Inc., San Diego, CA) was added to each well. Plate was then incubated for 1 hr at 20° C. on an orbital shaker. […] The standard curve was provided by the manufacturer, and all sample concentrations were determined from the standard curve values. Changes in absorbance were measured at 450 nm. […]

aged 3xTg-AD female mice [2] = assay: Leukocyte rolling velocity, two-photon laser scanning microscopy
Protocol: FIGS. 17A-17D show leukocyte rolling velocity was reduced in aged 3xTg-AD female mice.
Leukocytes velocity measurements were performed by linescans (512 lines/sec). *p<0.05 compared to aged 3xTg-AD male or C57 female evaluated by unpaired t-test. FIGS. 18A and 18B are capillary-based immunoassay and associated graphs showing PRMT4 inhibitor (TP-064) or AAV knockdown of PRMT4 reduced GFAP levels in aged 3xTg-AD female mice. Glial fibrillary acidic protein (GFAP, 55 kDa) was increased in aged 3xTg-AD female mice v. C57, which indicates neuroinflammation, but reversed with TP-064 (30 mg/kg, 7 days, IP) or PRMT4-AAV treatment in cortex, shown in FIG. 18A, and hippocampus, shown in FIG. 18B. Protein level was measured by capillary-based immunoassay and normalized to total protein. *p<0.05 as compared to C57, #p<0.05 v. 3xTg-AD evaluated by one-way ANOVA with Tukey's post-hoc analyses.

## CNCCN1CCC(c2cc(CN(C)C(=O)c3cccc(Oc4ccccc4)c3)ccn2)CC1 [TP-064, N-Methyl-N-((2-(1-(2-(methylamino)ethyl)piperidin-4-yl)pyridin-4-yl)methyl)-3-phenoxybenzamide]
VCAM-1
  VCAM-1 level: decreased
Aged 3xTg-AD female mice [1]
  regional cortical CBF: 194%±8.6
3-nitrotyrosine; 3xTg-AD mice
  3-nitrotyrosine level: 110 ± 27.2 µM
3-nitrotyrosine; C57BL/6J mice
  3-nitrotyrosine level: 86.9 ± 7.71 µM
Aged 3xTg-AD female mice [2]
  leukocyte rolling velocity: increased
